Results taken from patent US20230116703A1, “NOVEL ERGOLINES AND METHODS OF TREATING MOOD DISORDERS” (priority 2021, published 2023).
Where two headings read alike, the source gives them in different places.

Key:
[1] = biological target: T1, 5-HT2A receptor (Homo sapiens, UniProt P28223); assay: PathHunter beta-arrestin recruitment assay at 5-HT2A; type: cell-based; settings: for agonist type in arrestin recruitment assay (in words): 5-HT2A beta-arrestin
T1 construct: host or cells: HEK293
Method in brief: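 Cells co-express PK-tagged 5-HT2A and beta-arrestin fused to a beta-galactosidase deletion mutant, so arrestin recruitment restores enzyme activity, read by chemiluminescence; cells were held at 37° C before testing. Agonist % activity = RLU over vehicle, relative to the maximal control ligand.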

[2] = Metabolic stability in human liver microsomes (HLM); type: in vitro ADME; settings: for t1/2: 1 μM, 0.50 mg protein per mL; for microsomal CLint at 1 μM: both sexes, human, pooled human liver microsomes, pH 7.4, 0.50 mg protein per mL
Source text: HLM Stability. Pooled HLM from adult male and female donors (Corning 452117) were used.

[3] = test system: C57BL/6 mice; assay: Head twitch response (HTR) in mice; type: in vivo, mouse; settings: SC; for ED50: 20 min, read-out: ED50 (95% CI); for ED50 / Most Efficacious Dose / Emax (95% CI): mouse HTR; for ED50 / Emax (95% CI): 20 min observation, curve fit, poor in some cases; for # HTR at Most Efficacious Dose: head twitches in 20 min
Protocol: Agonists of the 5-HT2A receptor are well known to induce this effect in rodents and the potency of this HTR is correlated with hallucinogenic potency in humans.
Animals. Adult male C57BL/6 mice, aged 6-8 weeks (body weight 20-25 g) were used in this experiment. Animals were housed under controlled temperatures and 12-hour light/dark cycles (lights on between 07:00-19:00 h), with ad libitum food and water. This study was carried out in strict accordance with the requirements of the Committee for the Purpose of Control and Supervision of Experiments on Animals (CPCSEA), India. All efforts were made to minimize suffering.
Drugs and Drug Administration. Compound 1 was synthesized as described above. It was administered subcutaneously (SC) dissolved in saline vehicle at a volume of 10 mL/kg. Five doses were tested, with n=6 animals/group. Doses were calculated on the basis of the freebase.
Procedure. Mice were administered one dose of the drug and immediately placed into a small open field for behavioral observation. Animals were observed continuously for 20 mins and the number of head twitches (HTs) were counted by an observer blind to the treatment condition.
Statistical Analysis. The data points shown are the mean±standard error of the mean (SEM). Analysis was performed using GraphPad Prism 6. Curves were fit using a non-linear gaussian distribution to calculate ED50 and Emax values.
Additional disclosed compounds were tested in the mouse head twitch response (HTR) assay according to the procedure described in Example 43. […] Lastly, compounds with much larger benzyl and phenethyl substituents on the amine nitrogen (e.g., 10 and 11) were low efficacy in this assay, consistent with their lower maximal efficacy in the arrestin functional assay (see Example 41).

[4] = Metabolic stability in rat liver microsomes (RLM); settings: for t1/2: RLM, 0.50 mg protein per mL; for microsomal CLint at 1 μM: both, rat, pooled rat liver microsomes, pH 7.4
[5] = biological target: 5-HT1B receptor (Homo sapiens, UniProt P28222); assay: cAMP accumulation agonist assay at 5-HT1B; type: cell-based; settings: cAMP, agonist; for EC50: read-out: 5-HT1B EC50
Chain of 5-HT1B receptor (P28222 whole entry): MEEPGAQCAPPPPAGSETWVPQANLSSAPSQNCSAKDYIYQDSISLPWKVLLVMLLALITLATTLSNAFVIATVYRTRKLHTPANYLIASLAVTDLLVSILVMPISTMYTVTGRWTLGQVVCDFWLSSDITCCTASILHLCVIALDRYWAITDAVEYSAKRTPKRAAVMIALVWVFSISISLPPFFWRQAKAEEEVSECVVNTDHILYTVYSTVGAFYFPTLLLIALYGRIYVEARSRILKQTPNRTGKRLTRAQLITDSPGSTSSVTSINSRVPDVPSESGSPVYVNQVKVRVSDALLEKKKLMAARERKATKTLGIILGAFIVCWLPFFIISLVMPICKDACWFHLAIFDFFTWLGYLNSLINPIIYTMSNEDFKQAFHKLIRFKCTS
Method in brief: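 Agonism was measured by cAMP accumulation in stably transfected cells incubated 60 min at RT. A detection reagent was then added for 60 min at RT before reading, with an 800 nM cAMP standard in blank wells.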

[6] = biological target: T2, human 5-HT2C receptor (Homo sapiens, UniProt P28335); assay: cell-based; settings: Ca^2+ flux, agonist
T2 sequence (P28335 33-458): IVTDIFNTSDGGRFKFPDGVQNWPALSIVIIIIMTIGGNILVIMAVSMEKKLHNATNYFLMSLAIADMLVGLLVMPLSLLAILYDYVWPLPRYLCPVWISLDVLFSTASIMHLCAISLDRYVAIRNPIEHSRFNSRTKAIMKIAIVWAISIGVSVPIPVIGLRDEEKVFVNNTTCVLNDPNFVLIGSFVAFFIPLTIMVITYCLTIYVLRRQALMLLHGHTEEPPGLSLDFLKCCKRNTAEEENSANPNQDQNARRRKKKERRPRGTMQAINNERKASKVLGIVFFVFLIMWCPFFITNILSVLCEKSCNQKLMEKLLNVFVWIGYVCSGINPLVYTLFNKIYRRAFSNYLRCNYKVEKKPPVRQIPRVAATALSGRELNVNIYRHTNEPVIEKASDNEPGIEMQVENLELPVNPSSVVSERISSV

[7] = Metabolic stability in mouse liver microsomes (MLM); type: in vitro ADME; settings: 0.50 mg protein per mL; for t1/2: MLM (CD-1), 1 μM; for microsomal CLint at 1 μM: mouse, pooled mouse liver microsomes, pH 7.4, MLM (CD-1)
Source text: MLM Stability Pooled MLM from CD-1 mice (BIOIVT M00501) were used.

[8] = beta-arrestin recruitment, read-out: 5-HT2A Arrestin EC50

T1 sequence (P28223 whole entry): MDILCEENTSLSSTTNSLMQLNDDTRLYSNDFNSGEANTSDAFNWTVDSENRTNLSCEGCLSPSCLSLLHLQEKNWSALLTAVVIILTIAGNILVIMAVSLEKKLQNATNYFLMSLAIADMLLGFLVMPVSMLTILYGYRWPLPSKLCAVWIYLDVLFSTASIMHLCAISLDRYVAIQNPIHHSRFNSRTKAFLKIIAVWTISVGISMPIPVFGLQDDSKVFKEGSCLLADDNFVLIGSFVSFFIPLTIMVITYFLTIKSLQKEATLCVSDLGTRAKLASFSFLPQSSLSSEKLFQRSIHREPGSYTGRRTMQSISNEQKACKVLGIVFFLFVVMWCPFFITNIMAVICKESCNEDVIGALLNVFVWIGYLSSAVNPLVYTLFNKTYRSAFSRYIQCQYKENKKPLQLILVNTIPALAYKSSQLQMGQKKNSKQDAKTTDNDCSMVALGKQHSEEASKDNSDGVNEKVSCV

| SMILES | EC50 [1] [nM] | agonist type in arrestin recruitment assay (in words) [1] | t1/2 [2] [min] | microsomal CLint at 1 μM [2] [µL/min/mg] | ED50 [3] [mg/kg] | Most Efficacious Dose [3] [mg/kg] | Emax (95% CI) [3] | t1/2 [4] [min] | microsomal CLint at 1 μM [4] [µL/min/mg] | EC50 [5] [nM] | EC50 [6] [nM] | t1/2 [7] [min] | microsomal CLint at 1 μM [7] [µL/min/mg] | EC50 [1, 8] [nM] | efficacy in HTR assay (in words) ([3]; mouse) | # HTR at Most Efficacious Dose ([3]; mouse) | 5-HT1B % Act @ Max Dose [5] [%] | induction of head twitch response (in words) ([3]; mouse) |
| --- | --- | --- | --- | --- | --- | --- | --- | --- | --- | --- | --- | --- | --- | --- | --- | --- | --- | --- |
| CCN(CC)C(=O)[C@@H]1C=C2c3cccc4[nH]cc(c34)C[C@H]2N(CCCF)C1 [Compound 2, (6aR,9R)—N,N-diethyl-7-(3-fluoropropyl)-4,6,6a,7,8,9-hexahydroindolo[4,3-fg]quinoline-9-carboxamide] | 2.27 | full agonists | 19.061 | 72.7 | 0.0703 | 0.32 | 20.47 (18.43-22.6) | 11.972 | 116 | 193 | 4.35 | 2.666 | 520 |  |  |  |  |  |
| CCN(CC)C(=O)[C@@H]1C=C2c3cccc4[nH]cc(c34)C[C@H]2N(Cc2ccccc2OC)C1 [Compound 10, (6aR,9R)—N,N-diethyl-7-(2-methoxybenzyl)-4,6,6a,7,8,9-hexahydroindolo[4,3-fg]quinoline-9-carboxamide] |  | partial agonists | 7.3 | 190 | 1.26 | 3.2 | 7.749 (4.126-???) | 3.4 | 407 | 3190 | > 10000 | 1 | 1400 | 8.47 | low efficacy | 6.5 |  |  |
| CCN(CC)C(=O)[C@@H]1C=C2c3cccc4[nH]cc(c34)C[C@H]2N(CCc2ccccc2OC)C1 [Compound 11, (6aR,9R)—N,N-diethyl-7-(2-methoxyphenethyl)-4,6,6a,7,8,9-hexahydroindolo[4,3-fg]quinoline-9-carboxamide] |  | partial agonists | 2.372 | 584 | 2.21 | 3.2 | 19.79 (12.66-80.7) | 1.159 | 1200 | 448 | 74.5 | 0.917 | 1510 | 1.27 | low efficacy | 12.0 |  |  |
| CCCN1C[C@H](C(=O)N[C@H](C)CC)C=C2c3cccc4[nH]cc(c34)C[C@H]21 [Compound 3, (6aR,9R)—N—((R)-sec-butyl)-7-propyl-4,6,6a,7,8,9-hexahydroindolo[4,3-fg]quinoline-9-carboxamide] | < 0.509 | full agonists | 4.2 | 331 | 0.0401 | 0.32 | 25.56 (22.08-29.36) | 4.4 | 318 | 68.8 | 0.822 | 1.6 | 894 |  |  | 27.0 |  |  |
| CCCN1C[C@H](C(=O)N2[C@@H](C)C[C@@H]2C)C=C2c3cccc4[nH]cc(c34)C[C@H]21 [Compound 4, ((2S,4S)-2,4-dimethylazetidin-1-yl)((6aR,9R)-7-propyl-4,6,6a,7,8,9-hexahydroindolo[4,3-fg]quinolin-9-yl)methanone] | 1.44 | full agonists | 10.6 | 130 | 0.376 | 0.1 | 4.034 (2.965-5.217) | 12.8 | 108 | 97.6 | 5.6 | 0.8 | 1670 |  | less efficacious |  | 96 |  |
| CCCN1C[C@H](C(=O)NC(CC)CC)C=C2c3cccc4[nH]cc(c34)C[C@H]21 [Compound 6, (6aR,9R)—N-(pentan-3-yl)-7-propyl-4,6,6a,7,8,9-hexahydroindolo[4,3-fg]quinoline-9-carboxamide] | 1.91 | full agonists | 1.607 | 862 | 0.139 | 1 | 23.06 (19.86-27.47) | 1.655 | 837 | 201 | 6.18 | 0.6 | 2420 |  |  |  |  |  |
| CCCN1C[C@H](C(=O)N(CC)CC)C=C2c3cccc4[nH]cc(c34)C[C@H]21 [Compound 1, (6aR,9R)—N,N-diethyl-7-propyl-4,6,6a,7,8,9-hexahydroindolo[4,3-fg]quinoline-9-carboxamide] | 2.01 | full agonists | 15.1 | 91.6 | 0.0946 | 1 | 21.63 (18.45-25.78) | 16.2 | 85.4 | 3.82 | 11.9 | 2.3 | 615 |  |  |  |  | robust and dose-dependent HTR |
